Assay results: article PMC9405102, “Targeted Modification and Structure-Activity Study of GL-29, an Analogue of the Antimicrobial Peptide Palustrin-2ISb” (Antibiotics, 2022)
Values after ≈ are worked out from the molar mass of the structure shown. Where a SMILES comes first, the peptide text is derived from it. Where no end group is shown, it is not given here.

Columns and labels:
[1] = tested on: Staphylococcus aureus (S. aureus); parameters: method as in PMID 21911019; conditions: cited from earlier work
[2] = tested on: methicillin-resistant S. aureus (MRSA); parameters: method as in PMID 21911019; conditions: cited from earlier work
[3] = tested on: Escherichia coli (E. coli); parameters: method as in PMID 21911019; conditions: cited from earlier work
H157 = test: MTT antiproliferative assay; type: cell-based, human; conditions: 24 h
Description: The proliferative inhibition effect of GL-29 and its analogues were assessed by MTT assay as described in a previous study. HaCaT cell line (human keratinocytes) and four cancer cell lines, U251MG (human glioblastoma astrocytoma cell line), HCT116 (human colon cancer cell line), H157 (human non-small lung cancer cell line) and H838 (human lung carcinoma cancer cell line), were used in this assay. A total of 8000 cells/per well were seeded in the 96-well plate for 24 h and then treated with peptides at the concentration from 100 μM to 100 nM for 24 h. In this assay, 1% Triton X-100 and PBS were set as a positive and negative control, respectively. After which, the formazan was dissolved in DMSO and the OD value was detected by use of a Synergy HT plate reader (BioTek, Minneapolis, MN, USA) at λ = 570 nm.
Data were analysed using Prism (Version 8.2.1; GraphPad Software, Inc, San Diego, CA, USA). Error bars in the graphs represented standard errors of means (SEM) of nine repeats from three independent tests. The statistical significance was calculated using two-way ANOVA and is indicated as ns (non-significant difference), * (p < 0.05), ** (p < 0.01), *** (p < 0.001), ****(p < 0.0001). The HC10, HC50 and IC50 values were calculated using the online tool AAT Bioquest (https://www.aatbio.com/index.html, accessed on 6 May 2022).

[4] = tested on: Galleria mellonella larvae (waxworms); test: Toxicity of peptide in larvae in vivo; conditions: uninfected larvae
Description: In this assay, Galleria mellonella larvae (waxworms) (Livefood UK Ltd., Rooks Bridge, UK) were used as an infection model to investigate the antimicrobial potency of peptides against S. aureus, which was described in a previous study in detail (Yuan et al., 2019). The larvae, weights between 225 mg and 275 mg, were selected, and nine larvae were stored in a separate Petri dish as a group and they were divided into several groups. Then, 10 µL of the peptide solution at final concentrations of 8 µM and 16 µM, respectively, and 10 µL of PBS were injected into larvae to test the toxicity of peptides and PBS solution. Afterwards, 10 μL of the bacterial suspension in PBS (5 × 10^7 CFU/mL) were injected into larvae. All the infected larvae were ensured to be alive after 2 h of the injection, followed by the treatment with 10 μL of the peptide solution to reach final concentrations of 2, 4 and 8 μM, respectively. The negative control was treated with the same volume of PBS, and the positive control was dosed with the same volume of 20 mg/kg vancomycin (Sigma-Aldrich, UK). The number of living larvae was counted every 24 h for 5 days, except the first day of 12 h.

Row | Compound | MIC [1] [µM] | MIC [2] [µM] | MIC [3] [µM] | IC50 (H157) [µM] | toxicity against larvae ([4]; 2 × MIC (20 mg/kg)) | toxicity against larvae ([4]; 4 × MIC (40 mg/kg))
1 | CC[C@H](C)[C@H](NC(=O)[C@H](CCCCN)NC(=O)[C@@H](NC(=O)[C@H](CO)NC(=O)[C@H](CC(N)=O)NC(=O)[C@H](Cc1c[nH]c2ccccc12)NC(=O)[C@H](CC(C)C)NC(=O)CN)[C@@H](C)CC)C(=O)N[C@@H](C)C(=O)NCC(=O)N[C@@H](CCCCN)C(=O)N[C@@H](CCCCN)C(=O)N[C@@H](CC(C)C)C(=O)N[C@@H](Cc1ccccc1)C(=O)N[C@H](C(=O)N[C@@H](CC(N)=O)C(=O)N[C@H](C(=O)N[C@@H](CC(C)C)C(=O)N[C@@H](CC(=O)O)C(=O)N[C@@H](CCCCN)C(=O)N[C@H](C(=O)N[C@@H](CCCNC(=N)N)C(=O)N[C@H]1CSSC[C@@H](C(=O)O)NC(=O)CNC(=O)CNC(=O)[C@H](C)NC(=O)[C@H](C(C)C)NC(=O)[C@H](CCCCN)NC1=O)[C@@H](C)CC)C(C)C)C(C)C [GL-29] (HELM PEPTIDE1{G.L.W.N.S.I.K.I.A.G.K.K.L.F.V.N.V.L.D.K.I.R.C.K.V.A.G.G.C}$PEPTIDE1,PEPTIDE1,23:R3-29:R3$$$V2.0; N-terminus and C-terminus assumed; bridges inferred) | 6.3 (≈ 19.7 µg/mL) | 12.5 (≈ 39.1 µg/mL) | 1.6 (≈ 5.01 µg/mL) | – | – | –
2 | GLWNSIKIAGKKLFVNVLDKIR-NH2 [GL-22] | – | – | – | 9.36 | no toxicity | high toxicity
